One assay deals with LNCaP cells. Briefly: LNCaP growth assay (cell count). The assay is classed as cell-based, human. Here is the method: LNCaP cells express an endogenous mutant AR that is found in prostate cancer patients. This clinically relevant cell model was used to study JC9's effect in suppressing prostate cancer cell growth. Cells were plated at a density of 6.3×10^4 cells/well in 6-well tissue culture dishes. Two days later, the complete medium was aspired and 10% charcoal/dextran-treated (hormone depleted) serum-containing medium was added. Test compounds, JC9 and hydroxyflutamide (HF) were then added to the medium at a final concentration of 5 μM with or without 1 nM of DHT. For vehicle control, the same amount of DMSO was added. For the subsequent 5 days, the medium was aspired once per day, and fresh medium containing test compounds and/or DHT was added. At designated times, a portion of cells was harvested by trypsinization, and cell count was performed using a hemacytometer.

Assay [1] has as its system testosterone-induced hair growth suppression. Briefly: Androgen-induced alopecia model, hair re-growth in shaved mice. The assay is classed as in vivo, C57BL/6J mice. As to conditions: topical testosterone 1% in the morning, control solution in the afternoon, 20 days. Here is the method: C57BL/6J mice were used in this animal model for hair loss and regrowth (Uno et al. (1990) J. Cutaneous Aging & Cosm. Derm., 1: 193, which is incorporated by reference in its entirety herein). Six-week-old male mice (6 to 7 animals per group) were shaved with an electric clipper, and then treated with a hair-removal cream for 1 to 2 minutes. […] One day after hair removal, a first group of animals each received 100 microliters of a 1% testosterone solution in ethanol, applied topically to the shaved area, once each morning for twenty consecutive days. A second group of animals each received 100 microliters of vehicle (ethanol) alone, applied topically to the shaved area, once each morning for twenty consecutive days. The first group of mice (testosterone-treated) were divided further into a control group and a treatment group. Also beginning one day after hair removal, each mouse in the control group received 100 microliters of a control solution (60% ethanol, 20% propylene glycol, and 20% water) and each mouse in the treatment group received 100 microliters of the test compound, JC9 (0.02% in the same 60% ethanol, 20% propylene glycol, and 20% water solution), applied topically to the shaved area, once each afternoon for twenty consecutive days. Hair re-growth in the shaved areas was observed and photographed at 12, 15, 18, 21, and 24 days after beginning of the topical treatments.

For the compound `C[C@]12CCC(=O)C[C@@H]1CC[C@@H]1[C@@H]2CC[C@]2(C)[C@@H](O)CC[C@@H]12` [DHT, dihydrotestosterone], in the assay on LNCaP cells (1 nM DHT, 4-5 days), the “LNCaP cell growth with DHT alone” value was “up-regulated LNCaP cell growth”.

For `CC(C)(O)C(=O)Nc1ccc([N+](=O)[O-])c(C(F)(F)F)c1` [HF, hydroxyflutamide], the “cell growth (cell number) in the presence of DHT” value in the assay with LNCaP cells (5 μM, with 1 nM DHT, 5 days) is “moderate activity to repress DHT-stimulated cell growth”. Besides, the “cell growth (cell number)” value in the assay with LNCaP cells (5 μM, without DHT, 5-day incubation) is reported as “dramatic growth suppressing effect, however, was not detected”.

Consider `C[C@]12CC[C@H]3[C@@H](CCC4=CC(=O)CC[C@@]43C)[C@@H]1CC[C@@H]2O` [testosterone, reference compound], for which, in assay [1], the “hair re-growth in shaved areas” value is “little or no re-growth of hair”.

(Values after patent publication US20060084704A1, “Methods and compositions for enhancing degradation of nuclear receptor transcription factors and uses thereof” (priority 2004, published 2006).)
